Measured values as given in patent publication US11608335B2, “Somatostatin modulators and uses thereof” (CRINETICS PHARMACEUTICALS, INC., priority 2018, dated 2023).
Where two headings read alike, the source gives them in different places.

Tests used:
[1] = target: T1, human somatostatin receptor subtype 2 (Homo sapiens, UniProt P30874); assay: cAMP assay for SST2R (inhibition of cAMP via human SST2 receptor); assay type: cell-based; details: Table B, read-out: SST2 potency
T1 construct: expressed in transfected cells
From the text: cAMP Assay Protocol for SST2R:

[2] = target: human somatostatin receptor subtype 5 (Homo sapiens, UniProt P35346); assay: cAMP assay for SST5R (inhibition of cAMP via human SST5 receptor)
[3] = read-out: SST5 potency, inhibition of cAMP via human SST5 receptor, Table B

Sequence of human somatostatin receptor subtype 5 (P35346 whole entry): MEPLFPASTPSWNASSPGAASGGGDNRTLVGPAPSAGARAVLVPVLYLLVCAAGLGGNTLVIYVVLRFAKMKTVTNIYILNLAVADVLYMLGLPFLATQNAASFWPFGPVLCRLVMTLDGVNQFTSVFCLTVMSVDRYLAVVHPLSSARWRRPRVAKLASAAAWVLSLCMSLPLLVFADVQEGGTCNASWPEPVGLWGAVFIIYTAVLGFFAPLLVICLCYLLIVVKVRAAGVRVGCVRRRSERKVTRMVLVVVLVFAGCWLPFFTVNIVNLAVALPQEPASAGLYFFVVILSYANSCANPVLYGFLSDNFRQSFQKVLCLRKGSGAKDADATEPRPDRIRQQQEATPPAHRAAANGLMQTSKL
T1 sequence (P30874 whole entry): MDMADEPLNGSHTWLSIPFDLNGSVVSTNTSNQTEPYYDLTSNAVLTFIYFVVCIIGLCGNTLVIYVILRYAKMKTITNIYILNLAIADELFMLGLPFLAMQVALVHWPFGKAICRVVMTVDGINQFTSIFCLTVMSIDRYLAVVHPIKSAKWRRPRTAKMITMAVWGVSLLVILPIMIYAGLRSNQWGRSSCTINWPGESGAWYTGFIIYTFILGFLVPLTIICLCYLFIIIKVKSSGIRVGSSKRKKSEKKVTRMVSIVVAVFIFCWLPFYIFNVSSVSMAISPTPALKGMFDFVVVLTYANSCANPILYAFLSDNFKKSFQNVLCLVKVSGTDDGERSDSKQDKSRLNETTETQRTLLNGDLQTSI

| EC50 [1] | EC50 [2] | Fold selectivity for SST5 vs SST2 ([2]; SST5 over SST2, class symbols) | EC50 [2, 3] | Fold selectivity for SST5 vs SST2 ([2]; SST5 over SST2, given as number (comparison compounds)) | SMILES |
| --- | --- | --- | --- | --- | --- |
| > 1 µM | < 0.01 µM | +++ (+++=≥500) | < 0.01 µM |  | Cc1cc(F)cc(-c2cncc(-c3nc4cc(C)ccc4[nH]3)c2N2CC(CN)C2)c1 [Compound 1-10, 1-{1-[3-(3-fluoro-5-methylphenyl)-5-(5-methyl-1H-1,3-benzodiazol-2-yl)pyridin-4-yl]azetidin-3-yl}methanamine] |
| 0.01 to 0.1 µM | < 0.01 µM | +++ (+++=≥500) | < 0.01 µM |  | CC1(N)CCN(c2c(-c3ccnc(C#N)c3)cncc2-c2nc3cccc(Cl)c3[nH]2)C1 (stereo not drawn) [Compound 2-157, 4-(3-amino-3-methylpyrrolidin-1-yl)-5-(4-chloro-1H-1,3-benzodiazol-2-yl)-[3,4′-bipyridine]-2′-carbonitrile] |
| 0.1 to 1 µM | < 0.01 µM | +++ (+++=≥500) | < 0.01 µM |  | N#Cc1cc(-c2cncc(-c3nc4c(F)ccc(F)c4[nH]3)c2N2CC[C@H](N)C2)ccc1F [Compound 2-44, 5-{4-[(3S)-3-aminopyrrolidin-1-yl]-5-(4,7-difluoro-1H-1,3-benzodiazol-2-yl)pyridin-3-yl}-2-fluorobenzonitrile] |
| 0.01 to 0.1 µM | > 1 µM |  |  | 0.009 | Cc1ccnc2nc(-c3cncc(-c4cccc(Cl)c4)c3N3CCC(N)CC3)[nH]c12 |
| 0.1 to 1 µM | < 0.01 µM | +++ (+++=≥500) | < 0.01 µM |  | CC1(N)CCN(c2c(-c3ccnc(C#N)c3)cncc2-c2nc3cccc(F)c3[nH]2)C1 (stereo not drawn) [Compound 2-121, 4-(3-amino-3-methylpyrrolidin-1-yl)-5-(4-fluoro-1H-1,3-benzodiazol-2-yl)-[3,4′-bipyridine]-2′-carbonitrile] |
| > 1 µM | < 0.01 µM | +++ (+++=≥500) | < 0.01 µM |  | CCn1c(-c2cncc(-c3cc(F)cc(C#N)c3)c2N2CC[C@H](N)C2)nc2c(F)cccc21 [Compound 2-144, 3-{4-[(3S)-3-aminopyrrolidin-1-yl]-5-(1-ethyl-4-fluoro-1H-1,3-benzodiazol-2-yl)pyridin-3-yl}-5-fluorobenzonitrile] |
| 0.1 to 1 µM | 0.01 to 0.1 µM | + (+=10 to 99) | 0.01 to 0.1 µM |  | Cc1cc(F)cc(-c2cncc(-c3nc4ccc(Cl)cc4[nH]3)c2N2CC[C@H](N)C2)c1 [Compound 2-196, (3S)-1-[3-(6-chloro-1H-1,3-benzodiazol-2-yl)-5-(3-fluoro-5-methylphenyl)pyridin-4-yl]pyrrolidin-3-amine] |
| 0.1 to 1 µM | < 0.01 µM | +++ (+++=≥500) | < 0.01 µM |  | N#Cc1cccc(-c2cncc(-c3nc4c(F)cccc4[nH]3)c2N2CCC(N)(CO)C2)c1 (stereo not drawn) [Compound 2-54, 3-{4-[3-amino-3-(hydroxymethyl)pyrrolidin-1-yl]-5-(4-fluoro-1H-1,3-benzodiazol-2-yl)pyridin-3-yl}benzonitrile] |
| 0.1 to 1 µM | < 0.01 µM | +++ (+++=≥500) | < 0.01 µM |  | Cc1cc(F)cc2[nH]c(-c3cncc(-c4ccnc(C#N)c4)c3N3CC[C@](C)(N)C3)nc12 [Compound 2-166, 4-[(3S)-3-amino-3-methylpyrrolidin-1-yl]-5-(6-fluoro-4-methyl-1H-1,3-benzodiazol-2-yl)-[3,4′-bipyridine]-2′-carbonitrile] |
| 0.1 to 1 µM | < 0.01 µM | +++ (+++=≥500) | < 0.01 µM |  | Cc1cccc2nc(-c3cncc(-c4ccc(F)c(C#N)c4)c3N3CC[C@H](N)C3)[nH]c12 [Compound 2-37, 5-{4-[(3S)-3-aminopyrrolidin-1-yl]-5-(4-methyl-1H-1,3-benzodiazol-2-yl)pyridin-3-yl}-2-fluorobenzonitrile] |
